Measurements as given in US7074907B2, “Compound, process for producing the same and use thereof” (Nichirei Biosciences Inc., priority 2003, dated 2006).

Columns and labels:
[1] = Test for linoleic acid autooxidation inhibitory effect; format: biochemical; conditions: sample 0.01% (w/v) in ethanol, stored in darkness at 40° C., degree of oxidation after two weeks, FIGS. 1 and 2
Procedure: <Test for Linoleic Acid Autooxidation Inhibitory Effect> 2 ml of 2.5% (w/v) linoleic acid was mixed with 4 ml of a 0.05 M phosphate buffer (pH 7.0) to prepare a reaction liquid. The compound of the present invention was dissolved in 99.5% ethanol at a concentration of 0.01% (w/v) 2 ml of the resulting solution and 2 ml of distilled water were added to the reaction liquid to make the total volume to 10 ml, mixed, and placed in a brown threaded bottle to prepare a sample. A negative control was prepared by adding, to the reaction liquid, only 2 ml of 99.5% ethanol and 2 ml of distilled water, without adding anything else. […] The measurement was carried out by mixing 0.1 ml of a sample, 9.7 ml of 75% ethanol, and 0.1 ml of a 30% ammonium thiocyanate solution, adding 0.1 ml of 2×10^−2 M ferrous chloride (3.5% hydrochloric acid solution) thereto, and exactly 3 minutes later, measuring the absorbance at 500 nm. From the measured values, the difference in absorbance and the rate of autooxidation after two weeks were obtained. The same measurement was made with the blanks, and ΔAbsorbance=(Absorbance of Main Sample)−(Absorbance of Blank) was taken. The absorbance increases with oxidation of the sample, and after reaching the maximum, decreases with consumption of the sample to be oxidized. Thus earlier occurrence of the peak absorbance represents weaker antioxidative activity. […]

[2] = DPPH radical scavenging test; format: biochemical; conditions: concentration of the sample solution; acetate buffer pH 5.5, 30° C., 30 minutes, absorbance at 517 nm
Procedure: The antioxidative activity of the compound of not lower than 95% purity of the present invention prepared in Example 1 was evaluated using a stable radical, 1,1-diphenyl-2-picrylhydrazyl (DPPH).
To 1600 μl of 250 mM acetate buffer (pH=5.5), 1200 μl of ethanol and 400 μl of a sample (at an arbitrary concentration in ethanol) were mixed, and pre-incubated at 30° C. for 5 minutes. 800 μl of a 500 μM DPPH/ethanol solution was added, mixed, and left to stand at 30° C. for 30 minutes. Then the absorbance of the sample at 517 nm was measured.
A negative control was prepared by adding, instead of the sample solution, only ethanol to the reaction liquid without adding anything else. A positive control was prepared in the same way as for the present compound at the same concentration in ethanol, except that the present compound was replaced with α-tocopherol. From the measured absorbances, the radical scavenging ratio was calculated in accordance with the following formula. Scavenging ratio (%)=(1−[Absorbance of Sample]/[Absorbance of Control])×100
The scavenging ratios were measured with the sample concentration in the sample solution being changed stepwise, to determine the concentration of the sample solution at which the DPPH radical scavenging ratio was 50%. This concentration was taken as the 50% DPPH radical scavenged concentration. […]

SMILES	antioxidative activity (oxidation inhibitory effect on linoleic acid) [1]	50% DPPH radical scavenged concentration [2]
O=C(O)c1cc(O)c(O)c(O)c1 [gallic acid]	weaker oxidation inhibitory effect on linoleic acid	–
Cc1c(C)c2c(c(C)c1O)CC[C@@](C)(CCC[C@H](C)CCC[C@H](C)CCCC(C)C)O2 [α-tocopherol]	–	121.5 µg/mL
